Measurements: patent US20240366594A1, “Small Molecule Inhibitors of Formation of Neutrophil-Derived Extracellular Traps (NETosis) and Uses Thereof” (The Brigham and Women's Hospital, Inc., priority 2021, published 2024)

System: primary human neutrophils
Experiment: Extracellular DNA release by PMA-activated human neutrophils
Type: cell-based
Conditions: 1 μM GSK484 for 1 h, then 1 μM PMA for 4 hours; FIG. 5A
Method: FIGS. 5A-J. Class I/II HDACs drive NET formation. • A) Quantification of extracellular DNA released by neutrophils treated, or not, with 1 μM GSK484 for 1 h and then stimulated with 1 μM PMA for 4 hours. Unstimulated, neutrophils not treated with drugs were used as a control. • B) Freshly purified human neutrophils were treated with the indicated HDAC inhibitors at different doses (0.08, 0.4, 2 and 10 μM) for 1 hour. Extracellular DNA release was assessed in the supernatant 3 hours after PMA stimulation. The dotted line represents the amount of DNA released from neutrophils treated with PMA alone. […] NETosis induction was measured as level of anti-CitH3 fluorescent signal. […] NET induction was measured as in (C). […] NETosis induction was measured as level of anti-CitH3 fluorescent signal. […] NET induction was measured as in (F). • H, I) Freshly isolated neutrophils from two different donors were treated with different doses of ricolinostat, citarinostat (10, 2, 0.4, 0.08 μM) or GSK484 (10, 5, 2 μM) for 1 h and then stimulated with 1 μM PMA. NET induction was measured as level of anti-CitH3 fluorescent signal (H) and by microscopy as number of cells positive for CitH3 signal per field of view (FOV) (I). […] NET induction was measured as level of anti-CitH3 fluorescent signal. […] Statistics were calculated using One-way ANOVA (A, E, I) and Two-way ANOVA (B, F, G, H, L). […]

## COc1cc(C(=O)N2CC[C@@H](O)[C@@H](N)C2)cc2nc(-c3cc4ccccc4n3CC3CC3)n(C)c12 [GSK484]
  extracellular DNA released by PMA-treated neutrophils: significant decrease
